According to patent publication US20230021483A1, “[…] […] METHOD AND CLASSIFICATION OF PHARMACEUTICAL COMPONENTS BY USING TRANSCRIPTOMES” (National Institutes of Biomedical Innovation, Health and …, priority 2016, published 2023):
Peptide text beside a SMILES is read from it. * marks the point of attachment. X1 = CCCCCCCCCCCCCCCC(=O)OCC(C*)OC(=O)CCCCCCCCCCCCCCC; Palmitoyl = CCCCCCCCCCCCCCCC(=O)*

How the values were obtained:
Type in all cases: in vivo, C57BL/6 mice
circulating blood cells = test: Hematological cell count of peripheral blood 6 h after adjuvant administration (VetScan HMII); details: mouse, in vivo
Method: Take about 200 μL of blood from the retro-orbital venous plexus with a non-heparinized capillary tube and place the blood into a 1.5 mL tube comprising 2 μL of 10% EDTA-2K for hematological testing. Thoroughly mix the sample by gentle tapping. Stored at room temperature until hematological testing.
The hematological cell count was found using VetScan HMII (Abaxis). 50 μl of EDTA-2K blood sample was diluted by adding 250 μl of saline. Measurements are taken with VetScan HMII by following the instruction.
In a preliminary experiment, FCA and ALM were tested at different points up to 72 hours. […] At 6 hours after adjuvant administration, LV, SP, and LN (both sides) were removed to study the gene expression thereof by using Affimetrix Genechip microarray system (Affymetrix). The sampled organs were each placed in a tube containing RNAlater. The tube was maintained at 4° C. overnight, and stored at −80° C. until use. Blood was also collected after 6 hours from adjuvant administration for general hematological testing. About 200 μL of blood was taken from the retro-orbital venous plexus with a non-heparinized capillary tube and placed into a 1.5 mL tube comprising 2 μL of 10% EDTA-2K for hematological testing. The hematological cell count was found using VetScan HMII (Abaxis). 50 μl of EDTA-2K blood sample was diluted by adding 250 μl of saline. Measurements were taken with VetScan HMII by following the instruction.
The effect of adjuvant administration with respect to the changes in several hematological parameters was investigated. The following parameters were studied: white blood cells (WBC), lymphocytes (LYM), monocytes (MON), granulocytes (GRA), relative (%) content of lymphocytes (LY %), relative (%) content of monocytes (MO %), relative (%) content of granulocytes (GR %), red blood cells (RBC), hemoglobins (Hb, HGB), hematocrits (HCT), mean corpuscular volume (MCV), mean corpuscular hemoglobins (MCH), mean corpuscular hemoglobin concentration (MCHC), red blood cell distribution width (RDW), platelets (PLT), platelet concentration (PCT), mean platelet volume (MPV), and platelet distribution width (PDW).

liver (LV) = test: Whole organ transcriptome (GeneChip microarray) of liver 6 h after adjuvant administration: sDEGs, hierarchical clustering; on adjuvant group (cluster) in LV: key: G1 (interferon signaling); G2 (metabolism of lipids and lipoproteins); G3 (response to stress); G4 (response to wounding); G5 (phosphate-containing compound metabolic process); G6 (phagosome); details: liver; for Number of gene probes with statistically significant changes (sDEGs), LV, Down / Number of gene probes with statistically significant changes (sDEGs), LV, Up: i.d. administration, 6 h after adjuvant; for Number of gene probes with statistically significant changes (sDEGs), LV, Down: fold change <0.667, p<0.01, customized PA call=1; for Number of gene probes with statistically significant changes (sDEGs), LV, Up: fold change >1.5, p<0.01, customized PA call=1
spleen (SP) = test: Whole organ transcriptome (GeneChip microarray) of spleen 6 h after adjuvant administration: sDEGs, hierarchical clustering; on adjuvant group (cluster) in SP: key: G1 (interferon signaling); G2 (metabolism of lipids and lipoproteins); G3 (response to stress); G4 (response to wounding); G5 (phosphate-containing compound metabolic process); G6 (phagosome); details: for Number of gene probes with statistically significant changes (sDEGs), SP, Down / Number of gene probes with statistically significant changes (sDEGs), SP, Up: i.d. administration; for Number of gene probes with statistically significant changes (sDEGs), SP, Down: fold change <0.667, p<0.01, customized PA call=1, 6 h after adjuvant; for Number of gene probes with statistically significant changes (sDEGs), SP, Up: fold change >1.5, p<0.01, customized PA call=1, 6 h after adjuvant
[1] = test system: inguinal lymph nodes (LN); test: Whole organ transcriptome (GeneChip microarray) of draining inguinal lymph nodes 6 h after adjuvant administration: sDEGs, gene modules, hierarchical clustering; on adjuvant group (cluster) in LN: key: G1 (interferon signaling); G2 (metabolism of lipids and lipoproteins); G3 (response to stress); G4 (response to wounding); G5 (phosphate-containing compound metabolic process); G6 (phagosome); details: for Number of gene probes with statistically significant changes (sDEGs), LN, Down / Number of gene probes with statistically significant changes (sDEGs), LN, Up: i.d. administration, 6 h after adjuvant; for Number of gene probes with statistically significant changes (sDEGs), LN, Down: fold change <0.667, p<0.01, customized PA call=1; for Number of gene probes with statistically significant changes (sDEGs), LN, Up: fold change >1.5, p<0.01, customized PA call=1
[2] = test system: preferentially upregulated genes in LV, SP, LN; test: Z-score-based differential gene expression analysis (adjuvant group- or adjuvant-associated genes, 40 module mapping, TargetMine annotation); details: z-score selected genes; TargetMine and IPA upstream cytokine analyses
Excerpt: Each sample's FC value was converted into a z-score on a gene basis by using the entire data set for each organ. The Z-score of the triplicates of interest were summed for each adjuvant. For example, the three sample z-score in the LV sample following cdiGMP administration was summed on a gene-by-gene basis, after which the summed scores of >3 genes were selected as relatively preferentially expressed genes in the LV after cdiGMP administration. The following threshold was applied for selections. […] G2^LV: ALM_IP(z>1) & bCD(z>1) & ENDCN(z>1) & FCA(z>1). […] G4^LV: MALP2s(z>3). […] G2^SP: ENDCN_x2+ENDCN_x3(z>2) & ALM_IP(z>3) & bCD(z>3). […] G4^SP: ADX_ID_x2+ADX_ID_x3(z>2) & ADX_IP(z>3) & MALP2s(z>3). […] G2^LN: bCD(z>3) & FCA(z>3). […] G5^LN: K3(z>1.5) & K3SPG_x1+K3SPG_x2(z>1) & D35_x1+D35_x3(z>1). G6^LN: AddaVax(z>3).

LV, SP and LNs = test: Whole organ transcriptome across organs (adjuvant gene space): gene responses and adjuvant grouping; details: hierarchical clustering; LV, SP and/or LNs

| monocytosis (monocytes in blood) (circulating blood cells) | leukopenia (circulating blood cells) | lymphopenia (circulating blood cells) | Compound | Number of gene probes with statistically significant changes (sDEGs), LV, Down (liver (LV)) | Number of gene probes with statistically significant changes (sDEGs), LV, Up (liver (LV)) | Number of gene probes with statistically significant changes (sDEGs), SP, Down (spleen (SP)) | Number of gene probes with statistically significant changes (sDEGs), SP, Up (spleen (SP)) | Number of gene probes with statistically significant changes (sDEGs), LN, Down ([1]; lymph node) | Number of gene probes with statistically significant changes (sDEGs), LN, Up ([1]; lymph node) | adjuvant group (cluster) in LV (liver (LV); hierarchical clustering) | adjuvant group-associated biological features [2] | adjuvant group (cluster) within the adjuvant gene space (LV, SP and LNs) | adjuvant group (cluster) in SP (spleen (SP); hierarchical clustering) | module M40^LN (immune system process; dendritic cells, macrophages, neutrophils, stromal cells) ([1]; LN, 6 h) | adjuvant group (cluster) in LN ([1]; hierarchical clustering, lymph node) |
| --- | --- | --- | --- | --- | --- | --- | --- | --- | --- | --- | --- | --- | --- | --- | --- |
| clearly induced |  |  | CCCCCCCCCCCCCCCC(=O)N[C@@H](CSCC(COC(=O)CCCCCCCCCCCCCCC)OC(=O)CCCCCCCCCCCCCCC)C(=O)N[C@@H](CO)C(=O)N[C@@H](CCCCN)C(=O)N[C@@H](CCCCN)C(=O)N[C@@H](CCCCN)C(=O)N[C@@H](CCCCN)C(=O)O (stereo partly drawn) [Pam3CSK4, Pam-3-Cys-Ser-Lys-Lys-Lys-Lys] (Palmitoyl-C(X1)SKKKK-OH) |  |  |  |  |  |  |  |  |  |  |  |  |
|  |  |  | Nc1nc2c(ncn2[C@@H]2O[C@@H]3COP(=O)(O)O[C@H]4[C@@H](O)[C@H](n5cnc6c(=O)[nH]c(N)nc65)O[C@@H]4COP(=O)(O)O[C@H]3[C@H]2O)c(=O)[nH]1 [cdlGMP] | 218 | 280 | 261 | 707 | 908 | 1579 |  |  |  |  |  |  |
|  | caused leukopenia | strongly induced | Polyinosine-polycytidylic acid [PolyIC] | 1122 | 516 | 738 | 1360 | 1460 | 2203 | G1 | strongly associated with type I and type II interferon responses | group (G) 1 | G1 | strongly induced | G1 |
